In patent US10376481B2, “Compounds and methods for inhibiting NHE-mediated antiport in the treatment of disorders associated with fluid retention or salt overload and gastrointestinal tract disorders” (ARDELYX, INC, priority 2012, dated 2019):

Columns and labels:
[1] = tested on: absorption of sodium from the intestinal lumen; assay: Inhibition of intestinal sodium absorption: rat urinary sodium and fecal form 16 h post-dose; assay type: in vivo, Sprague-Dawley rats; settings: for response vs control in vivo at 10 mg/kg / response vs control in vivo at 3 mg/kg: urine 16 h post-dose, read-out: uNa Result, uNa (% of vehicle); for FFS (fecal form score): 16 h post-dose, scale 1-5, group average
Experimental: Urinary sodium concentration and fecal form were measured to assess the ability of selected example compounds to inhibit the absorption of sodium from the intestinal lumen. Eight-week old Sprague-Dawley rats were purchased from Charles River Laboratories (Hollister, Calif.), were housed 2 per cage, and acclimated for at least 3 days before study initiation. Animals were fed Harlan Teklad Global 2018 rodent chow (Indianapolis, Ind.) and water ad libitum throughout the study and maintained in a standard light/dark cycle of 6 AM to 6 PM. On the day of the study, between 4 PM and 5 PM, a group of rats (n=6) were dosed via oral gavage with test compound or vehicle (water) at a volume of 10 mL/kg. After dose administration animals were placed in individual metabolic cages where they were also fed the same chow in meal form and watered ad libitum. At 16 h post-dose, the urine samples were collected and fecal form was assessed by two independent observations. Fecal forms were scored according to a common scale associated with increasing fecal water to the wettest observation in the cage's collection funnel (1, normal pellet; 2, pellet adhering to sides of collection funnel due to moisture; 3, loss of normal pellet shape; 4, complete loss of shape with a blotting pattern; 5, liquid fecal streams evident). A rat's fecal form score (FFS) was determined by averaging both observational scores for all rats within a group (n=6). The vehicle group average was 1. For urine samples, the volumes were determined gravimetrically and centrifuged at 3,600×g. The supernatants were diluted 100-fold in deionized Milli-Q water then filtered through a 0.2 μm GHP Pall AcroPrep filter plate (Pall Life Sciences, Ann Arbor, Mich.) prior to analysis by ion chromatography. Ten microliters of each filtered extract was injected onto a Dionex ICS-3000 ion chromatograph system (Dionex, Sunnyvale, Calif.). Cations were separated by an isocratic method using 25 mM methanesulfonic acid as the eluent on an IonPac CS12A 2 mm i.d.×250 mm, 8 μm particle size cation exchange column (Dionex). Sodium was quantified using standards prepared from a cation standard mix containing Li^+, Na^+, NH4^+, K^+, Mg^2+, and Ca^2+ (Dionex). The mean mass of sodium urinated for every group in the 16 h period was determined with the vehicle group usually urinating approximately 21 mg sodium. The urine Na (uNa) for rats in the test groups were expressed as a percentage of the vehicle mean and the means were compared to that of the vehicle group by utilizing a one-way analysis of variance coupled with a Dunnett's post hoc test.

human NHE3 = biological target: T1, human NHE3 (Homo sapiens, UniProt P48764); assay: Cell-based assay of NHE-3 activity (persistent inhibition), human; settings: PS120 fibroblasts stably expressing human NHE3, 60 min incubation then washout; for IC50: read-out: pIC50 (human Persistence assay) (converted)
T1 sequence (P48764 26-834): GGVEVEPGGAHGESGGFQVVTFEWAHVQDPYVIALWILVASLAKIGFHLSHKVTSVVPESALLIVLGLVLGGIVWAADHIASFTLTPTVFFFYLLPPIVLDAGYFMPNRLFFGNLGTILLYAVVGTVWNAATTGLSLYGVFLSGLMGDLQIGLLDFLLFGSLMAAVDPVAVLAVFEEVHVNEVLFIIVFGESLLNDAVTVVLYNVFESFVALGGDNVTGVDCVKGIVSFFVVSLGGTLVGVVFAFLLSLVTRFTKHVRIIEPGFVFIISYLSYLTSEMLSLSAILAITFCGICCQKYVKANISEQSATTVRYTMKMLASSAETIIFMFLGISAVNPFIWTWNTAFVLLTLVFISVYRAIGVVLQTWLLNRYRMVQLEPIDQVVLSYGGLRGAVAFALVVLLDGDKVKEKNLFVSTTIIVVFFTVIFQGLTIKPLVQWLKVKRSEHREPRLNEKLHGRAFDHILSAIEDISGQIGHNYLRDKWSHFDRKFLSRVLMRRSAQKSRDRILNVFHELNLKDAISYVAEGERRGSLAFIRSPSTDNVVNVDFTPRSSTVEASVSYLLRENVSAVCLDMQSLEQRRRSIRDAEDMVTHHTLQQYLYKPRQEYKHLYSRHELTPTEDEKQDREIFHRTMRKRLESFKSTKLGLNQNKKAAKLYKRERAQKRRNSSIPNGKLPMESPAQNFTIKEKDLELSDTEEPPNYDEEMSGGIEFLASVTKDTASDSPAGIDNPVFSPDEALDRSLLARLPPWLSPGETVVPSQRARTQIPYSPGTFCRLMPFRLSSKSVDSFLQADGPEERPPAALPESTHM
Experimental: The ability of compounds to inhibit human and rat NHE-3-mediated Na^+-dependent H^+ antiport after application and washout was measured using a modification of the pH sensitive dye method described above. PS120 fibroblasts stably expressing human NHE3 were obtained from Mark Donowitz (Baltimore, Md.). Opossum kidney (OK) cells were obtained from the ATCC and propagated per their instructions. The rat NHE-3 gene was introduced into OK cells via electroporation, and cells were seeded into 96 well plates and grown overnight. Medium was aspirated from the wells, cells were washed once with NaCl-HEPES buffer (100 mM NaCl, 50 mM HEPES, 10 mM glucose, 5 mM KCl, 2 mM CaCl2, 1 mM MgCl2, pH 7.4), then overlayed with NaCl-HEPES buffer containing 0-30 μM test compound. After a 60 min incubation at room temperature, the test drug containing buffer was aspirated from the cells. Following aspiration, cells were washed once with NaCl-HEPES buffer without drug, then incubated for 30 min at 37° C. with NH4Cl-HEPES buffer (20 mM NH4Cl, 80 mM NaCl, 50 mM HEPES, 5 mM KCl, 2 mM CaCl2, 1 mM MgCl2, pH 7.4) containing 5 μM BCECF-AM. Cells were washed once with Ammonium free, Na^+-free HEPES (100 mM choline, 50 mM HEPES, 10 mM glucose, 5 mM KCl, 2 mM CaCl2, 1 mM MgCl2, pH 7.4) and incubated in the same buffer for 10 minutes at room temperature to lower intracellular pH. NHE-3-mediated recovery of neutral intracellular pH was initiated (10 min after compound washout) by addition of Na-HEPES buffer. […] Changes in intracellular pH were monitored using a FLIPR Tetra® (Molecular Devices, Sunnyvale, Calif.) by excitation at λex 439 to 505 nm, and measuring BCECF fluorescence at λem 538 nm. The initial rate of the fluorescence ratio change was used as a measure of NHE-mediated Na^+/H^+ activity, and reported as the change in fluorescence ratio per minute. Initial rates were plotted as the average 2 or more replicates, and pIC50 values were estimated using GraphPad Prism.

Row | Compound | % inhibition (human Persistence assay) (human NHE3) | IC50 (human NHE3) [µM] | response vs control in vivo at 10 mg/kg ([1]; oral gavage 10 mg/kg) [%] | FFS (fecal form score) ([1]; oral gavage 10 mg/kg) | FFS (fecal form score) ([1]; oral gavage 3 mg/kg) | response vs control in vivo at 3 mg/kg ([1]; oral gavage 3 mg/kg) [%]
1 | CN(C)[C@H]1Cc2c(Cl)cc(Cl)cc2[C@@H]1Oc1ccc(S(=O)(=O)NCCOCCOCCNC(=O)[C@H](O)[C@@H](O)C(=O)NCCOCCOCCNS(=O)(=O)c2ccc(O[C@H]3c4cc(Cl)cc(Cl)c4C[C@@H]3N(C)C)cc2)cc1 [Example 5, (2R,3R)—N1,N4-bis(2-(2-(2-(4-((1S,2S)-4,6-dichloro-2-(dimethylamino)-2,3-dihydro-1H-inden-1-yloxy)phenylsulfonamido)ethoxy)ethoxy)ethyl)-2,3-dihydroxysuccinamide] | C (>70%) | 0.1 to 1 | < 35 | 1 |  | 
2 | CN(C)[C@H]1Cc2c(Cl)cc(Cl)cc2[C@@H]1Oc1ccc(S(=O)(=O)NCCOCCOCCNC(=O)C(C)(C)C(=O)NCCOCCOCCNS(=O)(=O)c2ccc(O[C@H]3c4cc(Cl)cc(Cl)c4C[C@@H]3N(C)C)cc2)cc1 [Example 36] | C (>70%) | 0.1 to 1 | 35 to 75 | 2 |  | 
3 | CN(C)[C@H]1Cc2c(Cl)cc(Cl)cc2[C@@H]1Oc1ccc(S(=O)(=O)NCCOCCOCCNC(=O)CCC(C)(N)CCC(=O)NCCOCCOCCNS(=O)(=O)c2ccc(O[C@H]3c4cc(Cl)cc(Cl)c4C[C@@H]3N(C)C)cc2)cc1 [Example 11, 4-amino-N1,N7-bis(2-(2-(2-(4-((1S,2S)-4,6-dichloro-2-(dimethylamino)-2,3-dihydro-1H-inden-1-yloxy)phenylsulfonamido)ethoxy)ethoxy)ethyl)-4-methylheptanediamide] | B (40-70%) | < 0.1 | 35 to 75 |  |  | 
4 | CN(C)[C@H]1Cc2c(Cl)cc(Cl)cc2[C@@H]1Oc1ccc(S(=O)(=O)NCCOCCOCCNC(=O)COCC(=O)NCCOCCOCCNS(=O)(=O)c2ccc(O[C@H]3c4cc(Cl)cc(Cl)c4C[C@@H]3N(C)C)cc2)cc1 [Example 9, 2,2′-oxybis(N-(2-(2-(2-(4-((1S,2S)-4,6-dichloro-2-(dimethylamino)-2,3-dihydro-1H-inden-1-yloxy)phenylsulfonamido)ethoxy)ethoxy)ethyl)acetamide)] | C (>70%) | 0.1 to 1 |  |  | 2 | 35 to 75
5 | CN(C)[C@H]1Cc2ccccc2[C@@H]1Oc1ccc(S(=O)(=O)NCCOCCOCCNC(=O)NCCCCNC(=O)NCCOCCOCCNS(=O)(=O)c2ccc(O[C@H]3c4ccccc4C[C@@H]3N(C)C)cc2)cc1 [Example 20] | B (40-70%) | < 0.1 | 35 to 75 |  |  | 
6 | O=C(NCCCCNC(=O)NCCOCCOCCNS(=O)(=O)c1ccc(O[C@H]2c3cc(Cl)cc(Cl)c3C[C@@H]2N2CC[C@@H](O)C2)cc1)NCCOCCOCCNS(=O)(=O)c1ccc(O[C@H]2c3cc(Cl)cc(Cl)c3C[C@@H]2N2CC[C@@H](O)C2)cc1 [Example 30] | C (>70%) | < 0.1 |  |  |  | 35 to 75
7 | CN(C)[C@H]1Cc2c(F)cc(Cl)cc2[C@@H]1Oc1ccc(S(=O)(=O)NCCOCCOCCNC(=O)NCCCCNC(=O)NCCOCCOCCNS(=O)(=O)c2ccc(O[C@H]3c4cc(Cl)cc(F)c4C[C@@H]3N(C)C)cc2)cc1 [Example 25] | C (>70%) | < 0.1 | > 75 |  |  | 

Now from value to molecule, other results behind:

Row | % inhibition (human Persistence assay) (human NHE3) | IC50 (human NHE3) [µM] | Compound | response vs control in vivo at 10 mg/kg ([1]; oral gavage 10 mg/kg) [%] | FFS (fecal form score) ([1]; oral gavage 10 mg/kg) | FFS (fecal form score) ([1]; oral gavage 3 mg/kg) | response vs control in vivo at 3 mg/kg ([1]; oral gavage 3 mg/kg) [%]
8 | C (>70%) | > 1 | O=C(NCCCCNC(=O)NCCOCCOCCNS(=O)(=O)c1ccc(O[C@H]2c3cc(Cl)cc(Cl)c3C[C@@H]2N2CCCCC2)cc1)NCCOCCOCCNS(=O)(=O)c1ccc(O[C@H]2c3cc(Cl)cc(Cl)c3C[C@@H]2N2CCCCC2)cc1 [Example 15] | 35 to 75 |  |  | 
9 | C (>70%) | 0.1 to 1 | O=C(NCCCCNC(=O)NCCOCCOCCNS(=O)(=O)c1ccc(O[C@H]2c3cc(F)ccc3C[C@@H]2N2CCCCC2)cc1)NCCOCCOCCNS(=O)(=O)c1ccc(O[C@H]2c3cc(F)ccc3C[C@@H]2N2CCCCC2)cc1 [Example 23] | > 75 | 1 |  | 
10 | C (>70%) | < 0.1 | CN(C)[C@H]1Cc2ccc(Cl)cc2[C@@H]1Oc1ccc(S(=O)(=O)NCCOCCOCCNC(=O)NCCCCNC(=O)NCCOCCOCCNS(=O)(=O)c2ccc(O[C@H]3c4cc(Cl)ccc4C[C@@H]3N(C)C)cc2)cc1 [Example 21] | > 75 |  |  | 
11 | C (>70%) | < 0.1 | N[C@@H]1CCCN([C@H]2Cc3c(Cl)cc(Cl)cc3[C@@H]2Oc2ccc(S(=O)(=O)NCCOCCOCCNC(=O)NCCCCNC(=O)NCCOCCOCCNS(=O)(=O)c3ccc(O[C@H]4c5cc(Cl)cc(Cl)c5C[C@@H]4N4CCC[C@@H](N)C4)cc3)cc2)C1 [Example 3, (S,S,R)—N,N′-(10,17-dioxo-3,6,21,24-tetraoxa-9,11,16,18-tetraazahexacosane-1,26-diyl)bis(4-((1S,2S)-2-((R)-3-aminopiperidin-1-yl)-4,6-dichloro-2,3-dihydro-1H-inden-1-yloxy)benzenesulfonamide)] | 35 to 75 |  |  | 
12 | C (>70%) | < 0.1 | O=C(NCCCCNC(=O)NCCOCCOCCNS(=O)(=O)c1ccc(O[C@H]2c3cc(Cl)cc(F)c3C[C@@H]2N2CCCCC2)cc1)NCCOCCOCCNS(=O)(=O)c1ccc(O[C@H]2c3cc(Cl)cc(F)c3C[C@@H]2N2CCCCC2)cc1 [Example 24] | > 75 |  |  | 
